From patent publication US9012446B2, “Amino-oxazines and amino-dihydrothiazine compounds as beta-secretase modulators and methods of use” (Amgen Inc., priority 2010, dated 2015)
Like-named read-outs stand apart in the source and are kept apart here.

Tests used:
BACE = BACE (Homo sapiens, UniProt P56817); assay: In vitro enzymatic BACE FRET assay; assay type: biochemical; conditions: average IC50, enzyme assay; read-out: BACE 1 FRET assay
In short: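 BACE (0.2 nM) preincubated 1 h with serially diluted inhibitors in 0.05 M acetate pH 4.2, 10% DMSO, 100 uM genapol. FRET peptide substrate (50 nM) added, 1 h incubation, then stopped with Tris to neutral pH. Fluorescence from cleavage read at […].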

Abeta 40 = assay: In vivo inhibition of beta-secretase: Abeta 40 reduction in CSF and brain of the rat; conditions: 10 mpk, after 4 hrs
In short: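 Male Sprague Dawley rats (200 g) were given test compound by oral gavage in 2% HPMC, 1% Tween80, pH 2.2, while a vehicle-only group served as control. After sacrifice, brains were homogenized in 0.2% DEA/50 mM NaCl or 0.5% TritonX-100 in Tris-buffered saline and centrifuged at 355,000 g, 4° C. for 30 minutes. Abeta40 in CSF and brain supernatants was quantified by ECL sandwich ELISA (biotinylated-4G8 capture, Fab40 detection) as percent reduction versus vehicle.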

Aβ40 = assay: In vitro BACE cell-based assay (Aβ40 sandwich ELISA, cells stably expressing APP); conditions: Homo sapiens
In short: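 APP-stably-expressing cells, grown 24 h in DMEM/10% FBS, received 10-point compound doses starting at 100 μM or 10 μM (0.1% DMSO final). Secreted Aβ40 in supernatants measured by sandwich ELISA with time-resolved europium fluorescence; IC50 from percent inhibition versus concentration.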

[1] = Abeta 40, rat CSF, read-out: % reduction of rat CSF levels at 10 pmk
[2] = Abeta 40, rat brain, read-out: % reduction of rat brain levels at 10 mpk
[3] = HEK293, average IC50, cell assay, HEK cells

Sequence of BACE (P56817 46-501, species assumed): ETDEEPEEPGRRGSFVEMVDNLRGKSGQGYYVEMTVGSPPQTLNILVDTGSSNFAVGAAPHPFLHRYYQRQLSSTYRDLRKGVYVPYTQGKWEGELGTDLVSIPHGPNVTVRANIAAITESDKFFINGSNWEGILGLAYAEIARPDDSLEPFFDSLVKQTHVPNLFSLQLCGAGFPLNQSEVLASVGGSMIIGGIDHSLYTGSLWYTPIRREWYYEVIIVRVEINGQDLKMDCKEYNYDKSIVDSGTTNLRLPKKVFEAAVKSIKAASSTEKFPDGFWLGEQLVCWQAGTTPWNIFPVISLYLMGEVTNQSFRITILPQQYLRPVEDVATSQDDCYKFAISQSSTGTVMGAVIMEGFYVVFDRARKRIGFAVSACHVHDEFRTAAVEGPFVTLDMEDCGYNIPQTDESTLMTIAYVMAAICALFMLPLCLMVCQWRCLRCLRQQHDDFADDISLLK

IC50 (BACE) [nM]	IC50 (Aβ40; [3]) [nM]	IC50 (Aβ40; HEK293, average IC50, read-out: HEK cell assay) [nM]	Structure (SMILES)	inhibition in vivo at 10 mg/kg (Abeta 40; [1]) [%]	inhibition in vivo at 10 mg/kg (Abeta 40; [2]) [%]
0.6	1.2	–	NC1=N[C@@]2(COC1)c1cc(-c3cccnc3F)ccc1Oc1cnc(N3CCC(F)(F)CC3)cc12 [Example 32, (S)-3-(4,4-difluoropiperidin-1-yl)-7-(2-fluoropyridin-3-yl)-2′,6′-dihydrospiro[chromeno[2,3-c]pyridine-5,3′-[1,4]oxazin]-5′-amine]	37	26
3.1	–	4.9	CC(C)(C)C#Cc1cnc2c(c1)[C@]1(CCOC(N)=N1)c1cc(-c3cccnc3F)ccc1O2 [Example 270, (S)-3-(3,3-dimethylbut-1-ynyl)-7-(2-fluoropyridin-3-yl)-5′,6′-dihydrospiro[chromeno[2,3-b]pyridine-5,4′-[1,3]oxazin]-2′-amine]	70	52
0.3	1.3	–	NC1=N[C@@]2(COC1)c1cc(-c3cccnc3F)ccc1Oc1c(F)cc(C3=CCCOC3)cc12 [Example 132, (S)-2′-(5,6-dihydro-2H-pyran-3-yl)-4′-fluoro-7′-(2-fluoropyridin-3-yl)-2,6-dihydrospiro[[1,4]oxazine-3,9′-xanthen]-5-amine]	38	25
